What was measured:
[1] = biological target: cGMP-specific 3',5'-cyclic phosphodiesterase (Homo sapiens, UniProt O76074); assay: Inhibitory concentration against Phosphodiesterase type 5
Phosphodiesterase 1 = Phosphodiesterase 1 (Homo sapiens, UniProt P54750+Q01064+Q14123); assay: Inhibitory concentration against Phosphodiesterase type 1; assay type: protein assay
Phosphodiesterase 3 = Phosphodiesterase 3 (Homo sapiens, UniProt Q14432+Q13370); assay: Inhibitory concentration against Phosphodiesterase type 3; assay type: protein assay
Rattus norvegicus = species: Rattus norvegicus; assay: Effective concentration required for vasodilatory effect in isolated vessel of rat; assay type: functional

IC50 [1] | IC50 (Phosphodiesterase 1) | IC50 (Phosphodiesterase 3) | EC50 (Rattus norvegicus) | SMILES
9.46 µM | – | – | – | CCc1cc(C(C)=O)c(O)cc1OCc1cccc(C(=O)NC(CO)CC(=O)O)n1 (stereo not given)
3.68 µM | – | – | – | CCc1cc(C(C)=O)c(O)cc1OCc1cccc(C(=O)NC(Cc2ccc(O)cc2)C(=O)O)n1 (stereo not given)
0.27 µM | 0.2 µM | – | – | CCCCC(C(=O)NO)c1csc(NC(=O)c2cccc(COc3ccccc3)n2)n1 (stereo not given)
9.28 µM | > 10 µM | – | – | O=C(O)CCC(CCC(=O)O)(C(=O)O)c1csc(NC(=O)c2cccc(COc3ccccc3)n2)n1
9.43 µM | > 10 µM | – | – | O=C(O)Cc1cccc(NC(=O)c2cccc(COc3ccccc3)n2)n1
8.62 µM | – | – | – | CCc1cc(C(C)=O)c(O)cc1OCc1cccc(C(=O)NC(CO)C(=O)OCc2ccccc2)n1 (stereo not given)
3.28 µM | – | – | – | CCCCCCCC(=O)OCC(NC(=O)c1cccc(COc2cc(O)c(C(C)=O)cc2CC)n1)C(=O)O (stereo not given)
5.15 µM | – | – | – | CCc1cc(C(C)=O)c(O)cc1OCc1cccc(C(=O)Nc2nn[nH]n2)n1
2.64 µM | – | – | – | CCc1cc(C(C)=O)c(O)cc1OCc1cccc(C(=O)NC(CO)CCC(=O)OC)n1 (stereo not given)
0.04 µM | > 10 µM | – | – | O=C(Cc1cccc(NC(=O)c2cccc(COc3ccccc3)n2)n1)NO
3.5 µM | > 10 µM | – | – | COc1ccc(NC(=O)c2cccc(COc3ccccc3)n2)cc1C(=O)NO
10 µM | > 10 µM | – | – | O=C(O)Cc1cccc(NC(=O)c2cccc(COc3ccccc3)n2)c1
2.07 µM | > 10 µM | – | – | O=C(Cc1csc(NC(=O)Cc2cccc(C(F)(F)F)c2)n1)NO
0.013 µM | 2.41 µM | – | – | O=C(Cc1cccc(NC(=O)c2cccc(COc3ccccc3)n2)c1)NO
1.47 µM | > 10 µM | – | – | O=C(NO)c1cccc(NC(=O)c2cccc(COc3ccccc3)n2)n1
4.52 µM | > 10 µM | – | – | O=C(Cc1csc(NC(=O)CCC(=O)c2ccccc2)n1)NO
6.19 µM | > 10 µM | – | – | CCC(C(=O)Nc1nc(CC(=O)NO)cs1)c1ccccc1 (stereo not given)
0.14 µM | 8 µM | – | – | O=C(Cc1csc(NC(=O)c2ccc3ccccc3n2)n1)NO
2.42 µM | 3.9 µM | – | – | CC(C)C(C(=O)NO)c1csc(NC(=O)c2cccc(COc3ccccc3)n2)n1 (stereo not given)
4.58 µM | > 10 µM | – | – | CCCCCCC(C(=O)O)c1csc(NC(=O)c2cccc(COc3ccccc3)n2)n1 (stereo not given)
9.07 µM | – | – | – | CCc1cc(C(C)=O)c(O)cc1OCc1cccc(C(=O)NC(Cc2cnc[nH]2)C(=O)OC)n1 (stereo not given)
0.89 µM | 0.63 µM | – | – | O=C(Nc1nc(C2(C(=O)NO)CC2)cs1)c1cccc(COc2ccccc2)n1

IC50 [1] | IC50 (Phosphodiesterase 1) | IC50 (Phosphodiesterase 3) | EC50 (Rattus norvegicus) | SMILES
1.69 µM | 1.81 µM | – | – | O=C(Cc1csc(NC(=O)COc2ccc(Cl)cc2)n1)NO
8.43 µM | 3.87 µM | – | – | Cc1cccc(C(=O)Nc2nc(CC(=O)NO)cs2)c1Br
3.16 µM | > 10 µM | – | – | COc1ccc2c(c1)C(CC(=O)Nc1nc(CC(=O)NO)cs1)CC2=O (stereo not given)
7.65 µM | – | – | – | CCc1cc(C(C)=O)c(O)cc1OCc1cccc(C(=O)NCCCCCC(=O)O)n1
3.81 µM | > 10 µM | – | – | O=C(Cc1csc(NC(=O)Nc2cccc3ccccc23)n1)NO
6.49 µM | > 10 µM | – | – | CCCCC(C(=O)O)c1csc(NC(=O)c2cccc(COc3ccccc3)n2)n1 (stereo not given)
3.2 µM | 7.1 µM | – | – | O=C(Cc1csc(NC(=O)c2ccccn2)n1)NO
0.35 µM | – | – | – | CCc1cc(C(C)=O)c(O)cc1OCc1cccc(C(=O)NC(C)C(=O)NO)n1 (stereo not given)
10 µM | > 10 µM | – | – | O=C(Nc1nc(C(Cc2ccccc2)C(=O)O)cs1)c1cccc(COc2ccccc2)n1 (stereo not given)
0.83 µM | 1.36 µM | – | – | O=C(Nc1nc(C(Cc2ccccc2)C(=O)NO)cs1)c1cccc(COc2ccccc2)n1 (stereo not given)
0.77 µM | > 10 µM | – | – | Cc1nc(NC(=O)c2cccc(COc3ccccc3)n2)sc1C(=O)NO
0.46 µM | – | – | – | CCc1cc(C(C)=O)c(O)cc1OCc1cccc(C(=O)N[C@@H](C)C(=O)O)n1
3.41 µM | 1.72 µM | – | – | O=C(Cc1csc(NC(=O)c2cccc(C(=O)c3ccccc3)c2)n1)NO
10 µM | > 10 µM | – | – | O=C(O)CCC(C(=O)O)c1csc(NC(=O)c2cccc(COc3ccccc3)n2)n1 (stereo not given)
3.1 µM | – | – | – | CCc1cc(C(C)=O)c(O)cc1OCc1cccc(C(=O)NC(CO)CC(=O)OC)n1 (stereo not given)
8.58 µM | > 10 µM | – | – | O=C(Nc1nc(C2(C(=O)O)CC2)cs1)c1cccc(COc2ccccc2)n1
1.45 µM | – | – | – | CCc1cc(C(C)=O)c(O)cc1OCc1cccc(C(=O)NC(CC(=O)O)c2ccccc2)n1 (stereo not given)
0.65 µM | – | – | – | CCOC(=O)CC(NC(=O)c1cccc(COc2cc(O)c(C(C)=O)cc2CC)c1)C(=O)OCC (stereo not given)
6.07 µM | – | – | – | CCc1cc(C(C)=O)c(O)cc1OCc1cccc(C(=O)NC(O)CC(=O)OC)n1 (stereo not given)
2.2 µM | > 10 µM | – | – | O=C(NO)C(=O)c1csc(NC(=O)c2cccc(COc3ccccc3)n2)n1
0.63 µM | – | – | – | CCc1cc(C(C)=O)c(O)cc1OCc1cccc(C(=O)Nc2nc(CC(=O)O)cs2)c1
1.03 µM | – | – | – | CCc1cc(C(C)=O)c(O)cc1OCc1cccc(C(=O)N[C@H](C)C(=O)O)n1

IC50 [1] | IC50 (Phosphodiesterase 1) | IC50 (Phosphodiesterase 3) | EC50 (Rattus norvegicus) | SMILES
0.19 µM | 0.92 µM | > 10 µM | 3.9 µM | O=C(Cc1csc(NC(=O)c2cccc(COc3ccccc3)n2)n1)NO
0.04 µM | 4.52 µM | – | – | Cc1sc(NC(=O)c2cccc(COc3ccccc3)n2)nc1CC(=O)NO
5.47 µM | > 10 µM | – | – | CN(C)c1cccc(C(=O)Nc2nc(CC(=O)NO)cs2)c1
0.79 µM | 0.38 µM | – | – | O=C(Cc1csc(NC(=O)C2C=CN(c3ccccc3)c3ccccc32)n1)NO (stereo not given)
8.91 µM | – | – | – | CCc1cc(C(C)=O)c(O)cc1OCc1cccc(C(=O)NC(CO)(CO)CO)n1
0.87 µM | – | – | – | C=CCN(CCC(=O)O)C(=O)c1cccc(COc2cc(O)c(C(C)=O)cc2CC)n1
1.8 µM | > 10 µM | – | – | CCCCCCCCCCCC(=O)Nc1nc(CC(=O)NO)cs1
2.66 µM | > 10 µM | – | – | Cc1c(NC(=O)c2cccc(COc3ccccc3)n2)cccc1C(=O)NO
3.35 µM | – | – | – | CCc1cc(C(C)=O)c(O)cc1OCc1cccc(C(=O)NC(C(=O)OC)C(C)O)n1 (stereo not given)
0.27 µM | – | – | – | CCc1cc(C(C)=O)c(O)cc1OCc1cccc(C(=O)NCCC(=O)O)n1
1.84 µM | > 10 µM | – | – | O=C(Cc1csc(NC(=O)c2cnc3ccccc3n2)n1)NO
2.58 µM | > 10 µM | – | – | COc1cc(OC)c(OC)c(C(=O)Nc2nc(CC(=O)NO)cs2)c1
5.99 µM | > 10 µM | – | – | COc1ccc2c(c1)OC(=O)CC2CC(=O)Nc1nc(CC(=O)NO)cs1 (stereo not given)
0.52 µM | 0.67 µM | – | – | CC(C)(C(=O)NO)c1csc(NC(=O)c2cccc(COc3ccccc3)n2)n1
5.62 µM | > 10 µM | – | – | O=C(Cc1csc(NC(=O)COc2ccccc2)n1)NO
1.28 µM | 2.8 µM | – | – | COc1ccc2c(c1)c(CC(=O)Nc1nc(CC(=O)NO)cs1)c(C)n2C(=O)c1ccc(Cl)cc1
1.21 µM | – | – | – | CCc1cc(C(C)=O)c(O)cc1OCc1cccc(C(=O)N(CC)CCCCCCCCC(N)=O)n1
0.62 µM | 3.94 µM | – | – | CC(C)CC(C(=O)NO)c1csc(NC(=O)c2cccc(COc3ccccc3)n2)n1 (stereo not given)
0.13 µM | – | – | – | CCc1cc(C(C)=O)c(O)cc1OCc1cccc(C(=O)NC(C)C(=O)O)c1 (stereo not given)
3.3 µM | – | – | – | CCc1cc(C(C)=O)c(O)cc1OCc1cccc(C(=O)N(CCCCCCCCC(N)=O)C(C)CC)n1 (stereo not given)
2.49 µM | 2.93 µM | – | – | O=C(Nc1nc(C2(C(=O)NO)CCOCC2)cs1)c1cccc(COc2ccccc2)n1
2.13 µM | – | – | – | CCc1cc(C(C)=O)c(O)cc1OCc1cccc(C(=O)NC(C)C(=O)OC)c1 (stereo not given)

IC50 [1] | IC50 (Phosphodiesterase 1) | IC50 (Phosphodiesterase 3) | EC50 (Rattus norvegicus) | SMILES
1.24 µM | – | – | – | CCc1cc(C(C)=O)c(O)cc1OCc1cccc(C(=O)NC(C(=O)O)C(C)C)n1 (stereo not given)
0.92 µM | – | – | – | CCc1cc(C(C)=O)c(O)cc1OCc1cccc(C(=O)NCC(=O)O)c1
3.19 µM | – | – | – | CCc1cc(C(C)=O)c(O)cc1OCc1cccc(C(=O)NCC(O)c2ccc(O)cc2)n1 (stereo not given)
3.25 µM | > 10 µM | – | – | O=C(Cc1csc(NC(=O)c2ccccc2)n1)NO
1.83 µM | > 10 µM | – | – | Cc1cc(C)cc(C(=O)Nc2nc(CC(=O)NO)cs2)c1
1.1 µM | 1 µM | – | – | O=C(Cc1csc(NC(=O)c2cccc3ccccc23)n1)NO
6.25 µM | > 10 µM | – | – | CC(C)CC(C(=O)O)c1csc(NC(=O)c2cccc(COc3ccccc3)n2)n1 (stereo not given)
1.9 µM | 4.5 µM | – | – | O=C(Cc1csc(NC(=O)CCCCCc2ccccc2)n1)NO
0.32 µM | 2.67 µM | – | – | O=C(Cc1csc(NC(=O)c2cnccc2Oc2ccc(Cl)cc2)n1)NO
4.25 µM | > 10 µM | – | – | O=C(Cc1csc(NC(=O)c2ccc(Cl)cc2Cl)n1)NO
3.1 µM | – | – | – | CCc1cc(C(C)=O)c(O)cc1OCc1cccc(C(=O)Nc2ccc(OCC(=O)O)cc2)n1
0.026 µM | 0.087 µM | 1.3 µM | 0.9 µM | CCc1cc(C(C)=O)c(O)cc1OCc1cccc(C(=O)Nc2nc(CC(=O)NO)cs2)n1
0.43 µM | 1.72 µM | – | – | O=C(Cc1csc(NC(=O)c2cccc(SC(F)(F)F)c2)n1)NO
4.99 µM | 4.48 µM | – | – | Cc1nc(NC(=O)c2cccc(COc3ccccc3)n2)sc1C(=O)O
10 µM | > 10 µM | – | – | O=C(Nc1nc(C2(C(=O)O)CCOCC2)cs1)c1cccc(COc2ccccc2)n1
6.68 µM | – | – | – | CCC(=O)OCC(NC(=O)c1cccc(COc2cc(O)c(C(C)=O)cc2CC)n1)C(=O)O (stereo not given)
7.82 µM | – | – | – | CCc1cc(C(C)=O)c(O)cc1OCc1cccc(C(=O)NC2COC(=O)C2)n1 (stereo not given)
7.56 µM | > 10 µM | – | – | O=C(Cc1csc(NC(=O)c2ccccc2F)n1)NO
0.68 µM | – | – | – | CCc1cc(C(C)=O)c(O)cc1OCc1cccc(C(=O)NC(CO)C(=O)O)c1 (stereo not given)
0.23 µM | 5.7 µM | – | – | CCCCCCC(C(=O)NO)c1csc(NC(=O)c2cccc(COc3ccccc3)n2)n1 (stereo not given)
